For one test, the target named is human TLR9 (Homo sapiens (Human), UniProt Q9NR96). Briefly: TLR9 inhibition reporter assay (HEK-Blue SEAP reporter, ODN2006 stimulation).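 Note: SEAP reporter under IFN-β minimal promoter with five NF-κB and AP-1 sites, 22 h incubation, compounds 0.05 nM–50 µM, inhibition relative to agonist plus DMSO versus known inhibitor.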 The note with it: read-out: TLR9 IC50; HEK-Blue cells overexpressing human TLR9, ODN2006 5 nM, SEAP reporter. (A reporter such as luciferase makes a cellular process visible.)
human TLR9, sequence (Q9NR96 26-1032): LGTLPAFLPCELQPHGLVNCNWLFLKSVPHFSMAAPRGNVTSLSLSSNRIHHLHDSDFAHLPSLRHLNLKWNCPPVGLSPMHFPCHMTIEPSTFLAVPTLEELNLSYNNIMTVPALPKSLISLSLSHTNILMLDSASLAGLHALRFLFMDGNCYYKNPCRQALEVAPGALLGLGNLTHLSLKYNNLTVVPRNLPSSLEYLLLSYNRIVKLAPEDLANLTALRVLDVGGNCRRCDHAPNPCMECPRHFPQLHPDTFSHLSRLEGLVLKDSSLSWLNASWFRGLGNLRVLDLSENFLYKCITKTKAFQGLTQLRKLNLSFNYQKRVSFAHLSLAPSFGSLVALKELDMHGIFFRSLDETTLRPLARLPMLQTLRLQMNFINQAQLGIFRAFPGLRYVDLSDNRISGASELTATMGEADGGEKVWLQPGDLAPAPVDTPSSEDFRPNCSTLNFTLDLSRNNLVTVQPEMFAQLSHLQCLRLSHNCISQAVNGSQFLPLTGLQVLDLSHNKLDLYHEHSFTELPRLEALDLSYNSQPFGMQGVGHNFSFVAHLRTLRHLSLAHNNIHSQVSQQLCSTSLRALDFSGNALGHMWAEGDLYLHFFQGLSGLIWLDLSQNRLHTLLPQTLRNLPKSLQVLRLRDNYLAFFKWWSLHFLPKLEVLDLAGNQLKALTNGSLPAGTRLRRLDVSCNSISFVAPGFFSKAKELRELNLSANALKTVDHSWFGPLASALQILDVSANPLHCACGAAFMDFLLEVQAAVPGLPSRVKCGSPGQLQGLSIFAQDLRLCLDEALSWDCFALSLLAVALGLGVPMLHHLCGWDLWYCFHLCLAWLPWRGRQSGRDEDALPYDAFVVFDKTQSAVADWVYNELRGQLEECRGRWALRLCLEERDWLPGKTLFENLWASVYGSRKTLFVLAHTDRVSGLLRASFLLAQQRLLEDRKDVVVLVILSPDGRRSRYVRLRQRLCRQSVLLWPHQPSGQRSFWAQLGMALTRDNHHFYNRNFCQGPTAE
For the next test, the target named is human TLR8 (Homo sapiens (Human), UniProt Q9NR97). Briefly: TLR8 inhibition reporter assay (HEK-Blue SEAP reporter, R848 stimulation).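 Note: SEAP driven by IFN-β minimal promoter with NF-κB and AP-1 sites, 22 h incubation, compounds 0.05 nM–50 µM, inhibition scaled between agonist plus DMSO and reference inhibitor wells.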 The settings on record: read-out: TLR8 IC50; HEK-Blue cells overexpressing human TLR8, R848 15.9 μM, SEAP reporter.
human TLR8, sequence (Q9NR97 27-1041): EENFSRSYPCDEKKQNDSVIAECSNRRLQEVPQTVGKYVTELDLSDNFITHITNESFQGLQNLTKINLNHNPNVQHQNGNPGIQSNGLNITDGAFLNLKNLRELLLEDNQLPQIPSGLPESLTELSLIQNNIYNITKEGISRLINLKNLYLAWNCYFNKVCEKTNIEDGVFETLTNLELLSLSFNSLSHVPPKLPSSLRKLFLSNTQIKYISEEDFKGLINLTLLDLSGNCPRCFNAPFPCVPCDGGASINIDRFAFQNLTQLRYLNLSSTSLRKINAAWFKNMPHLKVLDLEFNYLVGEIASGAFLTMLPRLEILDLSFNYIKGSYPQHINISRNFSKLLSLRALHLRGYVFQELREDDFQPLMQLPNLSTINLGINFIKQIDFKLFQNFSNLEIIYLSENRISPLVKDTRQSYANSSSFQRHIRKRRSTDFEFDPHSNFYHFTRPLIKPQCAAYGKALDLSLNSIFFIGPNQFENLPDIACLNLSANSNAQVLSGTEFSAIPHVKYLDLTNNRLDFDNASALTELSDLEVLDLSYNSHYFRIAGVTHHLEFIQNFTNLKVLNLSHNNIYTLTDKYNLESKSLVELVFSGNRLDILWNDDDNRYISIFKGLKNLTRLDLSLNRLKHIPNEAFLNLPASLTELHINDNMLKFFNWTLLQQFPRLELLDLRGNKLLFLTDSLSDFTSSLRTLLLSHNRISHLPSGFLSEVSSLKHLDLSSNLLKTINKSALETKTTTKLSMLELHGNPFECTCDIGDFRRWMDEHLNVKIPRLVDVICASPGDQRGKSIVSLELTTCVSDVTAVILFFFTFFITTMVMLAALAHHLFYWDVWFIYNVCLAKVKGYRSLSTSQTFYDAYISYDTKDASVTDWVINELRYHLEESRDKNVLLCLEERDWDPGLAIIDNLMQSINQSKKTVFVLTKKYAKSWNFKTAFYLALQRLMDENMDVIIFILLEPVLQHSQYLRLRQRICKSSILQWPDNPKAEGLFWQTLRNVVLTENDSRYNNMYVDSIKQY
The target of the next test is human TLR7 (Homo sapiens (Human), UniProt Q9NYK1). Briefly: TLR7 inhibition reporter assay (HEK-Blue SEAP reporter, gardiquimod stimulation). The settings on record: HEK-Blue cells overexpressing human TLR7, gardiquimod 7.5 μM. Type of test: cell-based.
human TLR7, sequence (Q9NYK1 27-1049): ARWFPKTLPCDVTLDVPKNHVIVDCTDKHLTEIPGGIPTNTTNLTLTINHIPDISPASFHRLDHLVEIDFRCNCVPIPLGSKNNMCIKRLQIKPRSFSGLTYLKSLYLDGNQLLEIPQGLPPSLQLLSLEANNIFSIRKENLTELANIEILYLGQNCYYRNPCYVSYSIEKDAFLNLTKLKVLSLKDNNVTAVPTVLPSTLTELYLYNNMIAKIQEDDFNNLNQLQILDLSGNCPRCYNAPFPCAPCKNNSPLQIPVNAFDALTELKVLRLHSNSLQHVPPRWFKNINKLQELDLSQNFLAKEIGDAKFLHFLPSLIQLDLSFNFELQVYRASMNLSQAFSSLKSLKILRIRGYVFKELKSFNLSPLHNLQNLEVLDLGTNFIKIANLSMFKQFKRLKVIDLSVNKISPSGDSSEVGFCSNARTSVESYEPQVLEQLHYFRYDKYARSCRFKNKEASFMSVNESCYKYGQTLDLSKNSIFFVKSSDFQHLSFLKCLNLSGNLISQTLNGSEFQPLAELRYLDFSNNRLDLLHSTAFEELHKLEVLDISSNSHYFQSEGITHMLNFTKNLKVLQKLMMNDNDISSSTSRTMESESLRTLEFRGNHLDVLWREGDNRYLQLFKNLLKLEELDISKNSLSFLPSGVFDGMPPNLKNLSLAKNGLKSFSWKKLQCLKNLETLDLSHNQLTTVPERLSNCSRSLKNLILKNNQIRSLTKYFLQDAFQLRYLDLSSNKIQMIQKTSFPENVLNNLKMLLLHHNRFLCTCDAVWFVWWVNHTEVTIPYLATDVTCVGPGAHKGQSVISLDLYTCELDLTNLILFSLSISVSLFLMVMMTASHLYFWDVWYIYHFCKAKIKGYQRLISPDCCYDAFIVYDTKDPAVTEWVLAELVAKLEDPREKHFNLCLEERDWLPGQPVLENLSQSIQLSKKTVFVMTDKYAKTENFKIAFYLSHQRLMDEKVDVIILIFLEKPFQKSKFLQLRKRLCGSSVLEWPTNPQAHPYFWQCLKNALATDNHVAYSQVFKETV

For orientation: IC50 means the concentration that inhibits the measured activity by half.

Description for human TLR9: HEK-Blue™-cells (Invivogen) overexpressing human TLR7, TLR8 or TLR9 receptors were used for screening inhibitors of these receptors using an inducible SEAP (secreted embryonic alkaline phosphatase) reporter gene under the control of the IFN-β minimal promoter fused to five NF-κB and AP-1-binding sites. Briefly, cells are seeded into Greiner 384 well plates (15000 cells per well for TLR7, 20,000 for TLR8 and 25,000 for TLR9) and then treated with test compounds in DMSO to yield a final dose response concentration range of 0.05 nM-50 μM. After a 30 minute compound pre-treatment at room temperature, the cells are then stimulated with a TLR7 ligand (gardiquimod at a final concentration of 7.5 μM), TLR8 ligand (R848 at a final concentration of 15.9 μM) or TLR9 ligand (ODN2006 at a final concentration of 5 nM) to activate NF-κB and AP-1 which induce the production of SEAP. After a 22 hour incubation at 37° C., 5% CO2, SEAP levels are determined with the addition of HEK-Blue™ Detection reagent (Invivogen), a cell culture medium that allows for detection of SEAP, according to manufacturer's specifications.

As for `Cc1cc(-c2[nH]c3ccc(C(C)(C)C(=O)N[C@@H]4CCCC[C@H]4N)cc3c2C(C)C)ccn1` [Example 169, N—((R,2R)-2-aminocyclohexyl)-2-(3-isopropyl-2-(2-methylpyridin-4-yl)-1H-indol-5-yl)-2-methylpropanamide], the IC50 at human TLR9 was 0.899 µM; at human TLR8 it was 0.0071 µM; against human TLR7, 0.016 µM.
With `Cc1cc(-c2[nH]c3ccc(C(C)(C)C(=O)N[C@H]4CCCC[C@H]4N)cc3c2C(C)C)ccn1` [Example 170, N-((1S,2R)-2-aminocyclohexyl)-2-(3-isopropyl-2-(2-methylpyridin-4-yl)-1H-indol-5-yl)-2-methylpropanamide], the IC50 on human TLR9 was determined as 1.66 µM; at human TLR8 it was 0.051 µM; on human TLR7 it was 0.011 µM.
For the molecule `Cc1cc(-c2[nH]c3ccc(C(C)(C)C(=O)NCCC4CCCNC4)cc3c2C(C)C)ccn1` (stereo not drawn) [Example 171, 2-(3-isopropyl-2-(2-methylpyridin-4-yl)-1H-indol-5-yl)-2-methyl-N-(2-(piperidin-3-yl)ethyl)propanamide], the half-maximal inhibitory concentration (IC50) at human TLR9 was 5.22 µM; at human TLR8 it was 0.602 µM; against human TLR7, 0.067 µM.
With `Cc1cc(-c2[nH]c3ccc(C(C)(C)C(=O)NC[C@H]4CC[C@H](N)CC4)cc3c2C(C)C)ccn1` [Example 172, N-(((1r,4r)-4-aminocyclohexyl)methyl)-2-(3-isopropyl-2-(2-methylpyridin-4-yl)-1H-indol-5-yl)-2-methylpropanamide], the half-inhibitory concentration (IC50) on human TLR9 turned out to be 1.8 µM; at human TLR8, 0.325 µM; against human TLR7, 0.058 µM.
Turning to `Cc1cc(-c2[nH]c3ccc(C(C)(C)C(=O)NCC4(O)CCN(C)CC4)cc3c2C(C)C)ccn1` [Example 173, N-((4-hydroxy-1-methylpiperidin-4-yl)methyl)-2-(3-isopropyl-2-(2-methylpyridin-4-yl)-1H-indol-5-yl)-2-methylpropanamide], the IC50 on human TLR9 worked out at 0.691 µM; at human TLR8, 0.15 µM; on human TLR7, 0.057 µM.
As for `Cc1cc(-c2[nH]c3ccc(C(C)(C)C(=O)NCC4(O)CN5CCC4CC5)cc3c2C(C)C)ccn1` (stereo not drawn) [Example 174, N-((3-hydroxyquinuclidin-3-yl)methyl)-2-(3-isopropyl-2-(2-methylpyridin-4-yl)-1H-indol-5-yl)-2-methylpropanamide], the IC50 on human TLR9 is 2.06 µM; at human TLR8, 0.55 µM; on human TLR7, 0.054 µM.
Consider `Cc1cc(-c2[nH]c3ccc(C(C)(C)C(=O)N4CCNCC4)cc3c2C(C)C)ccn1` [Example 175, 2-(3-isopropyl-2-(2-methylpyridin-4-yl)-1H-indol-5-yl)-2-methyl-1-(piperazin-1-yl)propan-1-one], for which the results for the IC50 on human TLR9, at human TLR8 and on human TLR7 were 1.01 µM, 0.036 µM and 0.167 µM, respectively.
In the case of `Cc1cc(-c2[nH]c3ccc(C(C)(C)C(=O)N4CC5CC4CN5)cc3c2C(C)C)ccn1` (stereo not drawn) [Example 176, 1-(2,5-diazabicyclo[2.2.1]heptan-2-yl)-2-(3-isopropyl-2-(2-methylpyridin-4-yl)-1H-indol-5-yl)-2-methylpropan-1-one], the IC50 on human TLR9 turned out to be 8.39 µM; at human TLR8, 0.211 µM; against human TLR7, 0.26 µM.
Take `Cc1cc(-c2[nH]c3ccc(C(C)(C)C(=O)N4CCC(OC5CCNCC5)CC4)cc3c2C(C)C)ccn1` [Example 177, 2-(3-isopropyl-2-(2-methylpyridin-4-yl)-1H-indol-5-yl)-2-methyl-1-(4-(piperidin-4-yloxy)piperidin-1-yl)propan-1-one]: the IC50 is 1.47 µM on human TLR9, 0.058 µM on human TLR8 and 0.128 µM against human TLR7.
Regarding `Cc1cc(-c2[nH]c3ccc(C(C)(C)C(=O)N4CCC5(CCNC5)C4)cc3c2C(C)C)ccn1` (stereo not drawn) [Example 178, 2-(3-isopropyl-2-(2-methylpyridin-4-yl)-1H-indol-5-yl)-2-methyl-1-(2,7-diazaspiro[4.4]nonan-2-yl)propan-1-one], the IC50 at human TLR9 worked out at 1.66 µM; on human TLR8, 0.859 µM; against human TLR7, 0.061 µM.
Consider `Cc1cc(-c2[nH]c3ccc(C(C)(C)C(=O)N4CC5(CCNCC5)C4)cc3c2C(C)C)ccn1` [Example 179, 2-(3-isopropyl-2-(2-methylpyridin-4-yl)-1H-indol-5-yl)-2-methyl-1-(2,7-diazaspiro[3.5]nonan-2-yl)propan-1-one], for which the results for the concentration for half-maximal inhibition (IC50) on human TLR9, at human TLR8 and against human TLR7 were 4.93 µM, 1.13 µM and 0.035 µM, respectively.
Turning to `Cc1cc(-c2[nH]c3ccc(C(C)(C)C(=O)N4CCCC5(CNC5)C4)cc3c2C(C)C)ccn1` [Example 180, 2-(3-isopropyl-2-(2-methylpyridin-4-yl)-1H-indol-5-yl)-2-methyl-1-(2,6-diazaspiro[3.5]nonan-6-yl)propan-1-one], the figures for the IC50 on human TLR9, at human TLR8 and against human TLR7 were 1 µM, 0.306 µM and 0.147 µM, respectively.
Regarding `Cc1cc(-c2[nH]c3ccc(C(C)(C)C(=O)N4CCC5(CCNC5)CC4)cc3c2C(C)C)ccn1` [Example 181, 2-(3-isopropyl-2-(2-methylpyridin-4-yl)-1H-indol-5-yl)-2-methyl-1-(2,8-diazaspiro[4.5]decan-8-yl)propan-1-one], the results for the IC50 at human TLR9, at human TLR8 and on human TLR7 were 1.95 µM, 1.24 µM and 0.076 µM, respectively.
As to `Cc1cc(-c2[nH]c3ccc(C(C)(C)C(=O)N4CCCCC4C4CCNCC4)cc3c2C(C)C)ccn1` (stereo not drawn) [Example 182, 1-([2,4′-bipiperidin]-1-yl)-2-(3-isopropyl-2-(2-methylpyridin-4-yl)-1H-indol-5-yl)-2-methylpropan-1-one], the half-inhibitory concentration (IC50) on human TLR9 came to 0.716 µM; on human TLR8 it was 0.081 µM; at human TLR7 it was 0.015 µM.
As for `Cc1cc(-c2[nH]c3ccc(C(C)(C)C(=O)N4CC5CNCC5C4)cc3c2C(C)C)ccn1` (stereo not drawn) [Example 183, 1-(hexahydropyrrolo[3,4-c]pyrrol-2(1H)-yl)-2-(3-isopropyl-2-(2-methylpyridin-4-yl)-1H-indol-5-yl)-2-methylpropan-1-one], the IC50 was 0.387 µM on human TLR9, 0.103 µM at human TLR8 and 0.03 µM at human TLR7.
Take `Cc1cc(-c2[nH]c3ccc(C(C)(C)C(=O)N4CCCC5(CCNC5)C4)cc3c2C(C)C)ccn1` (stereo not drawn) [Example 184, 2-(3-isopropyl-2-(2-methylpyridin-4-yl)-1H-indol-5-yl)-2-methyl-1-(2,7-diazaspiro[4.5]decan-7-yl)propan-1-one]: the half-inhibitory concentration (IC50) at human TLR9 was determined as 0.533 µM; at human TLR8, 0.139 µM; on human TLR7 it was 0.091 µM.
The matching figures for `Cc1cc(-c2[nH]c3ccc(C(C)(C)C(=O)N4CC5CNC5C4)cc3c2C(C)C)ccn1` (stereo not drawn) [Example 185, 1-(3,6-diazabicyclo[3.2.0]heptan-3-yl)-2-(3-isopropyl-2-(2-methylpyridin-4-yl)-1H-indol-5-yl)-2-methylpropan-1-one]: 11.9 µM, 0.554 µM and 0.071 µM.
`Cc1cc(-c2[nH]c3ccc(C(C)C(=O)NC4CCC5CNCC54)cc3c2C(C)C)ccn1` (stereo not drawn) [Example 186, 2-(3-isopropyl-2-(2-methylpyridin-4-yl)-1H-indol-5-yl)-N-(octahydrocyclopenta[c]pyrrol-4-yl)propanamide]: the IC50 amounted to 0.599 µM at human TLR9, 0.1 µM on human TLR8 and 0.146 µM at human TLR7.
With `Cc1cc(-c2[nH]c3ccc(C(C)C(=O)NC4CCC5CNCC54)cc3c2C(C)C)ccn1` (stereo not drawn) [Example 187, 2-(3-isopropyl-2-(2-methylpyridin-4-yl)-1H-indol-5-yl)-N-(octahydrocyclopenta[c]pyrrol-4-yl)propanamide], the IC50 at human TLR9 stood at 1.35 µM; on human TLR8, 0.496 µM; at human TLR7, 0.223 µM.
Take `Cc1cc(-c2[nH]c3ccc(C(C)C(=O)N[C@@H]4CCNC4)cc3c2C(C)C)ccn1` (stereo partly drawn) [Example 188, 2-(3-isopropyl-2-(2-methylpyridin-4-yl)-1H-indol-5-yl)-N—((R)-pyrrolidin-3-yl)propanamide]: the results for the IC50 on human TLR9, on human TLR8 and on human TLR7 were 2.62 µM, 0.387 µM and 0.458 µM, respectively.
In the case of `Cc1cc(-c2[nH]c3ccc(C(C)C(=O)N[C@H]4CCNC4)cc3c2C(C)C)ccn1` (stereo partly drawn) [Example 189, 2-(3-isopropyl-2-(2-methylpyridin-4-yl)-1H-indol-5-yl)-N—((S)-pyrrolidin-3-yl)propanamide], the IC50 on human TLR9 was 1.68 µM; on human TLR8 it was 0.246 µM; at human TLR7, 0.268 µM.
The matching figures for `Cc1cc(-c2[nH]c3ccc(C(C)C(=O)N[C@H]4CCNC4)cc3c2C(C)C)ccn1` (stereo partly drawn) [Example 190, 2-(3-isopropyl-2-(2-methylpyridin-4-yl)-1H-indol-5-yl)-N—((S)-pyrrolidin-3-yl)propanamide]: 0.957 µM, 0.211 µM and 0.137 µM.
For the molecule `Cc1cc(-c2[nH]c3ccc(C(C)C(=O)NC4CN5CCC4CC5)cc3c2C(C)C)ccn1` (stereo not drawn) [Example 191, 2-(3-isopropyl-2-(2-methylpyridin-4-yl)-1H-indol-5-yl)-N-(quinuclidin-3-yl)propanamide], the IC50 at human TLR9 was determined as 1.29 µM; at human TLR8, 0.209 µM; against human TLR7 it was 0.175 µM.
As for `Cc1cc(-c2[nH]c3ccc(C(C)C(=O)NC4CN5CCC4CC5)cc3c2C(C)C)ccn1` (stereo not drawn) [Example 192, 2-(3-isopropyl-2-(2-methylpyridin-4-yl)-1H-indol-5-yl)-N-(quinuclidin-3-yl)propanamide], the IC50 at human TLR9 amounted to 1.53 µM; on human TLR8, 0.142 µM; at human TLR7 it was 0.071 µM.
In the case of `Cc1cc(-c2[nH]c3ccc(C(C)C(=O)NC4CCNCC4)cc3c2C(C)C)ccn1` (stereo not drawn) [Example 193, 2-(3-isopropyl-2-(2-methylpyridin-4-yl)-1H-indol-5-yl)-N-(piperidin-4-yl)propanamide], the IC50 on human TLR9 was determined as 3.37 µM; on human TLR8, 0.147 µM; at human TLR7, 0.203 µM.

Values taken from patent publication US11420973B2, “Amide substituted indole compounds useful as TLR inhibitors” (BRISTOL-MYERS SQUIBB COMPANY, priority 2017, dated 2022).
